Experimental findings from ChEMBL document CHEMBL1649239, “Cotransfer of antibiotic resistance genes and a hylEfm-containing virulence plasmid in Enterococcus faecium” (2009) are described below.

Molecules are shown by their SMILES. In brackets after ≈: the same amount, converted by molar mass.

Holding throughout (format): functional
Assay [1] deals with Enterococcus faecium. In words: Antimicrobial activity against erythromycin-, streptomycin-resistant Enterococcus faecium A expressing hylEfm gene by agar dilution method.
Assay [2] deals with Enterococcus faecium. In words: Antimicrobial activity against fusidic acid-, rifampin-resistant Enterococcus faecium TX1330RF by agar dilution method.
The subject of assay [3] is Enterococcus faecium. The experiment in a line: Antimicrobial activity against erythromycin-, streptomycin-, vancomycin-, gentamicin-resistant Enterococcus faecium TX1330RF-B1 conjugant expressing hylEfm gene by agar dilution method.
Assay [4] has as its system Enterococcus faecium. The experiment in a line: Antimicrobial activity against pbp5 gene-deficient vancomycin-, fusidic acid-, rifampin-resistant Enterococcus faecium D344SRF-C6 expressing hylEfm gene by agar dilution method.
For assay [5], the system named is Enterococcus faecium. In words: Antimicrobial activity against vancomycin-resistant Enterococcus faecium C expressing hylEfm gene by agar dilution method.
In assay [6] the test system is Enterococcus faecium. The experiment in a line: Antimicrobial activity against vancomycin-, gentamicin-resistant Enterococcus faecium B expressing hylEfm gene by agar dilution method.
For assay [7], the system named is Enterococcus faecium. In words: Antimicrobial activity against vancomycin-, gentamicin-resistant Enterococcus faecium TX1330RF-B2 conjugant expressing hylEfm gene by agar dilution method.
For assay [8], the system named is Enterococcus faecium. In words: Antimicrobial activity against erythromycin-, streptomycin-resistant Enterococcus faecium TX1330RF-A1 conjugant expressing hylEfm gene by agar dilution method.
For assay [9], the system named is Enterococcus faecium. In words: Antimicrobial activity against pbp5 gene-deficient fusidic acid-, rifampin-resistant Enterococcus faecium D344SRF expressing hylEfm gene by agar dilution method.

Consider `CC1(C)S[C@@H]2[C@H](NC(=O)[C@H](N)c3ccccc3)C(=O)N2[C@H]1C(=O)O` [AMPICILLIN], for which the MIC against Enterococcus faecium [1] was 4 mg/L (≈ 11.4 µM); with Enterococcus faecium [2], 1 mg/L (≈ 2.86 µM); with Enterococcus faecium [3] it was 1 mg/L (≈ 2.86 µM); with Enterococcus faecium [4] it was less than 0.25 mg/L; in the assay on Enterococcus faecium [5], 128 mg/L (≈ 366 µM); against Enterococcus faecium [6] it was 256 mg/L (≈ 733 µM). Also, the figures for the MIC with Enterococcus faecium [7], against Enterococcus faecium [8] and with Enterococcus faecium [9] were 1 mg/L (≈ 2.86 µM), 1 mg/L (≈ 2.86 µM) and less than 0.25 mg/L, respectively.
Consider `CC[C@H]1OC(=O)[C@H](C)[C@@H](O[C@H]2C[C@@](C)(OC)[C@@H](O)[C@H](C)O2)[C@H](C)[C@@H](O[C@@H]2O[C@H](C)C[C@H](N(C)C)[C@H]2O)[C@](C)(O)C[C@@H](C)C(=O)[C@H](C)[C@@H](O)[C@]1(C)O` [ERYTHROMYCIN], for which the MIC against Enterococcus faecium [1] is more than 512 mg/L; against Enterococcus faecium [2], 0.5 mg/L (≈ 0.681 µM); in the assay on Enterococcus faecium [3], more than 512 mg/L; with Enterococcus faecium [4] it was more than 512 mg/L; in the assay with Enterococcus faecium [5], more than 512 mg/L; in the assay on Enterococcus faecium [6], more than 512 mg/L. Besides, the MIC was 0.25 mg/L (≈ 0.341 µM) with Enterococcus faecium [7], more than 512 mg/L with Enterococcus faecium [8] and 512 mg/L (≈ 698 µM) against Enterococcus faecium [9].
For `CN[C@H](CC(C)C)C(=O)N[C@H]1C(=O)N[C@@H](CC(N)=O)C(=O)N[C@H]2C(=O)N[C@H]3C(=O)N[C@H](C(=O)N[C@H](C(=O)O)c4cc(O)cc(O)c4-c4cc3ccc4O)[C@H](O)c3ccc(c(Cl)c3)Oc3cc2cc(c3O[C@@H]2O[C@H](CO)[C@@H](O)[C@H](O)[C@H]2O[C@H]2C[C@](C)(N)[C@H](O)[C@H](C)O2)Oc2ccc(cc2Cl)[C@H]1O` [VANCOMYCIN], the MIC in the assay on Enterococcus faecium [5] stood at 256 mg/L (≈ 177 µM); with Enterococcus faecium [6] it was 512 mg/L (≈ 353 µM); against Enterococcus faecium [7], 256 mg/L (≈ 177 µM).
